Data published in the supplement of paper PMC11061612.

Experiments:
Assay in all cases: combination Emax (second highest fraction inhibited in the dose matrix, 72 h); higher = more inhibition; extreme values may be limits of the assay
[1] = tested on: NCI-H1781 (Lung Adenocarcinoma)
Method in brief: (§1)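 Cell lines in DMEM/F12 or RPMI with 10% FBS were plated in 1536-well plates, held 24 hours at 37°C, 5% CO2, then given two-drug dose matrices for 72 hours (DMSO typically 0.2%). Viability was read by CellTiter-Glo 2.0 luminescence and scaled as inhibition from 0 (vehicle wells) to 1 (blank wells). Combination Emax is the second-highest inhibition in the matrix; Bliss excess is observed combination effect minus expected EA + EB − EA·EB, EA and EB being single-agent effects.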

[2] = tested on: EM-2 (Chronic Myelogenous Leukemia)
Method in brief: as §1

[3] = tested on: NCI-H1793 (Lung Adenocarcinoma)
Method in brief: as §1

[4] = tested on: SW1783 (Low Grade Glioma)
Method in brief: as §1

[5] = tested on: KATOIII (Gastric Carcinoma)
Method in brief: as §1

[6] = tested on: TE-5 (Esophageal Squamous Cell Carcinoma)
Method in brief: as §1

[7] = tested on: DB (B-Cell Non-Hodgkin's Lymphoma)
Method in brief: as §1

[8] = tested on: COR-L23 (Non-Small Cell Lung Carcinoma)
Method in brief: as §1

[9] = tested on: JiyoyeP-2003 (Burkitt's Lymphoma)
Method in brief: as §1

[10] = tested on: C3A (Hepatocellular Carcinoma)
Method in brief: as §1

[11] = tested on: CTV-1 (T-Lymphoblastic Leukemia)
Method in brief: as §1

[12] = tested on: DMS-273 (Small Cell Lung Carcinoma)
Method in brief: as §1

[13] = tested on: G-292-Clone-A141B1 (Osteosarcoma)
Method in brief: as §1

[14] = tested on: NCI-H1694 (Small Cell Lung Carcinoma)
Method in brief: as §1

[15] = tested on: HT-29 (Colorectal Carcinoma)
Method in brief: as §1

ES7 (Ewing's Sarcoma) = tested on: ES7 (Ewing's Sarcoma)
Method in brief: as §1

RH-1 (Ewing's Sarcoma) = tested on: RH-1 (Ewing's Sarcoma)
Method in brief: as §1

[16] = tested on: LU-99A (Non-Small Cell Lung Carcinoma)
Method in brief: as §1

[17] = tested on: 697 (B-Lymphoblastic Leukemia)
Method in brief: as §1

J82 (Bladder Carcinoma) = tested on: J82 (Bladder Carcinoma)
Method in brief: as §1

SMILES | combination Emax [1] | combination Emax [2] | combination Emax [3] | combination Emax [4] | combination Emax [5] | combination Emax [6] | combination Emax [7] | combination Emax [8] | combination Emax [9] | combination Emax [10] | combination Emax [11] | combination Emax [12] | combination Emax [13] | combination Emax [14] | combination Emax [15] | combination Emax (ES7 (Ewing's Sarcoma)) | combination Emax (RH-1 (Ewing's Sarcoma)) | combination Emax [16] | combination Emax [17] | combination Emax (J82 (Bladder Carcinoma))
C[C@@H]1COCCN1c1cc(C2([S@](C)(=N)=O)CC2)nc(-c2ccnc3[nH]ccc23)n1 [AZD6738] + O=C(c1cc(Cc2n[nH]c(=O)c3ccccc23)ccc1F)N1CCN(C(=O)C2CC2)CC1 [Olaparib] (first compound max 10 µM, 7x7, partner max 10 µM) | 0.59 | 0.984 | 0.379 | 0.407 | 0.341 | 0.442 | 0.736 | 0.42 | 0.944 | 0.429 | 0.916 | 0.721 | 0.283 | 0.734 | 0.799 | 0.962 | 0.965 | 0.712 | 1 | 0.344
Cc1cc2ncnn2cc1Nc1ncc2c(n1)n(C1CCOCC1)c(=O)n2C [AZD7648] + C=CCn1c(=O)c2cnc(Nc3ccc(N4CCN(C)CC4)cc3)nc2n1-c1cccc(C(C)(C)O)n1 [AZD1775] (first compound max 10 µM, partner max 1 µM) | 0.482 | 0.964 | 0.416 | 0.322 | 0.391 | 0.515 | 0.786 | 0.36 | 0.929 | 0.521 | 0.97 | 0.611 | 0.295 | 0.383 | 0.816 | 0.541 | 1 | 0.563 | 1 | 0.244
Cc1cc2ncnn2cc1Nc1ncc2c(n1)n(C1CCOCC1)c(=O)n2C [AZD7648] + CCN(CCO)CCCOc1ccc2c(Nc3cc(CC(=O)Nc4cccc(F)c4)[nH]n3)ncnc2c1 [AZD2811] (first compound max 10 µM, 7x7, partner max 1 µM) | 0.671 | 0.878 | 0.26 | 0.293 | 0.263 | 0.394 | 0.601 | 0.0476 | 0.481 | 0.269 | 0.375 | 0.82 | 0.291 | 0.273 | 0.265 | 0.855 | 0.952 | 0.53 | 1 | 0.126
Cc1cc2ncnn2cc1Nc1ncc2c(n1)n(C1CCOCC1)c(=O)n2C [AZD7648] + CN(C)CCCOc1ccc(-c2ccc3ncc4c(c3c2)n(C2CCOCC2)c(=O)n4C)cn1 [AZD0156] (first compound max 10 µM, 7x7, partner max 1 µM) | 0.352 | 0.349 | 0.333 | 0.277 | 0.291 | 0.41 | 0.551 | 0.0702 | 0.394 | 0.251 | 0.262 | 0.411 | 0.341 | 0.165 | 0.247 | 0.433 | 0.127 | 0.511 | 0.486 | 0.104
Cc1cc2ncnn2cc1Nc1ncc2c(n1)n(C1CCOCC1)c(=O)n2C [AZD7648] + C[C@@H]1COCCN1C2=NC(=NC(=C2)C3(CC3)[S@](=N)(=O)C)C4=C5C=CNC5=NC=C4 [AZD6738] (first compound max 10 µM, 7x7, partner max 10 µM) | 0.443 | 0.957 | 0.36 | 0.437 | 0.407 | 0.565 | 0.54 | 0.577 | 0.929 | 0.548 | 0.864 | 0.788 | 0.334 | 0.659 | 0.808 | 0.766 | 0.894 | 0.681 | 1 | 0.31
Cc1cc2ncnn2cc1Nc1ncc2c(n1)n(C1CCOCC1)c(=O)n2C [AZD7648] + O=C(c1cc(Cc2n[nH]c(=O)c3ccccc23)ccc1F)N1CCN(C(=O)C2CC2)CC1 [Olaparib] (first compound max 10 µM, 7x7, partner max 10 µM) | 0.413 | 0.351 | 0.371 | 0.14 | 0.145 | 0.162 | 0.451 | 0.212 | 0.423 | 0.232 | 0.279 | 0.553 | 0.121 | 0.152 | 0.0989 | 0.846 | 0.23 | 0.55 | 0.988 | 0.351
